Data: ChEMBL document CHEMBL5625249, “Optimization and antifungal activity of quinoline derivatives linked to chalcone moiety combined with FLC against Candida albicans” (Eur J Med Chem, 2023)
Activity calls are given as the source filed them. No cut-off for these calls is given here.

Assays:
Candida albicans [1] = test: Antifungal activity against Clinical FLC-resistant Candida albicans 23 measured after 24 hrs by microdilution method; type: functional
Candida albicans [2] = test: In vivo antifungal activity against FLC-resistant Candida albicans ATCC 14053 infected in Balb/c mouse assessed as reduction in infiltration of inflammatory cells at 15 mg/kg, ig measured after 6 days by H and E staining based histopathological analysis; type: functional, organism-based; settings: time 6.0 day
Candida albicans [3] = test: Synergistic antifungal activity against FLC-resistant Candida albicans ATCC 14053 assessed as inhibition of hyphal formation by measuring down regulation of RAS1 gene expression at 1 ug/ml measured after 16 to 18 hrs in presence of fluconazole by qRT-PCR analysis; type: functional, organism-based; settings: dose 1.0 µg/ml, time 16-18 hrs
Candida albicans [4] = test: Antifungal activity against FLC-resistant Candida albicans ATCC 14053 measured after 24 hrs by microdilution method; type: functional
Candida albicans [5] = test: Synergistic antifungal activity against clinical FLC-resistant Candida albicans 799 measured after 24 hrs by microdilution method; type: functional
Candida albicans [6] = test: Synergistic antifungal activity against FLC-resistant Candida albicans ATCC 14053 measured after 24 hrs by microdilution method; type: functional
Candida albicans [7] = test: Synergistic antifungal activity against clinical FLC-resistant Candida albicans 808 assessed as fractional inhibitory concentration index measured after 24 hrs by microdilution method; type: functional
Candida albicans [8] = test: Antifungal activity against clinical FLC-resistant Candida albicans 3816 measured after 24 hrs by microdilution method; type: functional
Candida albicans [9] = test: In vivo antifungal activity against FLC-resistant Candida albicans ATCC 14053 infected in Balb/c mouse assessed as restoration of normal glomeruli morphology at 15 mg/kg, ig measured after 6 days by H and E staining based histopathological analysis; type: functional, organism-based; settings: time 6.0 day
Candida albicans [10] = test: In vivo antifungal activity against FLC-resistant Candida albicans ATCC 14053 infected in Balb/c mouse assessed as survival rate at 7.5 to 15 mg/kg, ig measured daily for 6 days in presence of fluconazole (Rvb < 20%); type: functional; settings: dose 7.5-15 mg/kg, time 6 day
Candida albicans [11] = test: Synergistic antifungal activity against clinical FLC-resistant Candida albicans 187 assessed as fractional inhibitory concentration index measured after 24 hrs in presence of fluconazole by microdilution method; type: functional
Candida albicans [12] = test: Antifungal activity against clinical FLC-resistant Candida albicans 4508 measured after 24 hrs by microdilution method; type: functional
Candida albicans [13] = test: Synergistic antifungal activity against FLC-resistant Candida albicans ATCC 14053 assessed as inhibition of hyphal formation by measuring down regulation of HWP1 gene expression at 1 ug/ml measured after 16 to 18 hrs in presence of fluconazole by qRT-PCR analysis; type: functional, organism-based; settings: dose 1.0 µg/ml, time 16-18 hrs
Candida albicans [14] = test: Induction of mitochondrial membrane potential loss in FLC-resistant Candida albicans ATCC 14053 at 1 ug/mL measured after 16 to 18 hrs in presence of fluconazole by JC-1 staining based fluorescence assay; type: functional, organism-based; settings: dose 1.0 µg/ml, time 16-18 hrs
Candida albicans [15] = test: Synergistic antifungal activity against clinical FLC-resistant Candida albicans 187 measured after 24 hrs in presence of fluconazole by microdilution method; type: functional
Candida albicans [16] = test: Synergistic antifungal activity against clinical FLC-resistant Candida albicans 800 measured after 24 hrs by microdilution method; type: functional
Candida albicans [17] = test: Synergistic antifungal activity against clinical FLC-resistant Candida albicans 602 measured after 24 hrs by microdilution method; type: functional
Candida albicans [18] = test: Antifungal activity against FLC-resistant Candida albicans ATCC 14053 at 1 ug/mL measured over 48 hrs by time-killing assay; type: functional, organism-based; settings: dose 1.0 µg/ml
Candida albicans [19] = test: In vivo antifungal activity against FLC-resistant Candida albicans ATCC 14053 infected in Balb/c mouse assessed as restoration of normal kidney morphology at 15 mg/kg, ig measured after 6 days by H and E staining based histopathological analysis; type: functional, organism-based; settings: time 6.0 day
Candida albicans [20] = test: Synergistic antifungal activity against FLC-resistant Candida albicans ATCC 14053 assessed as reduction in intracellular ATP level at 1 ug/ml measured after 16 to 18 hrs in presence of fluconazole by luminescence assay; type: functional, organism-based; settings: dose 1.0 µg/ml, time 16-18 hrs
Candida albicans [21] = test: In vivo antifungal activity against FLC-resistant Candida albicans ATCC 14053 infected in Balb/c mouse assessed as survival rate at 15 mg/kg, ig measured daily for 6 days (Rvb < 20%); type: functional; settings: ATCC 14053, po, 144 h, time 6 day
[22] = Toxicity in Balb/c mouse assessed as weight loss at 15 mg/kg, ig measured daily for 6 days; type: organism-based; settings: in vivo, po, 144 h, time 6 day
Candida albicans [23] = test: Synergistic antifungal activity against clinical FLC-resistant Candida albicans 3816 assessed as fractional inhibitory concentration index measured after 24 hrs by microdilution method; type: functional
Candida albicans [24] = test: In vivo antifungal activity against FLC-resistant Candida albicans ATCC 14053 infected in Balb/c mouse assessed as reduction in renal injury at 15 mg/kg, ig measured after 6 days by H and E staining based histopathological analysis; type: functional, organism-based; settings: time 6.0 day
Candida albicans [25] = test: Synergistic antifungal activity against FLC-resistant Candida albicans ATCC 14053 assessed as inhibition of rhodamine 6G efflux measured within 30 mins in presence of fluconazole by Rhodamine 6G staining based fluorescence assay; type: functional, organism-based
Candida albicans [26] = test: Synergistic antifungal activity against FLC-sensitive Candida albicans SC5314 assessed as fractional inhibitory concentration index measured after 24 hrs in presence of fluconazole by microdilution method; type: functional
Candida albicans [27] = test: Antifungal activity against FLC-resistant Candida albicans ATCC 14053 cultured in spider medium assessed as inhibition of hyphal formation at 1 ug/ml measured after 2 hrs by inverted microscopy; type: functional, organism-based; settings: dose 1.0 µg/ml
Candida albicans [28] = test: Synergistic antifungal activity against clinical FLC-resistant Candida albicans 4574 measured after 24 hrs by microdilution method; type: functional
Candida albicans [29] = test: Antifungal activity against clinical FLC-resistant Candida albicans 602 measured after 24 hrs by microdilution method; type: functional
Candida albicans [30] = test: Synergistic antifungal activity against clinical FLC-resistant Candida albicans 602 assessed as fractional inhibitory concentration index measured after 24 hrs by microdilution method; type: functional
Candida albicans [31] = test: In vivo antifungal activity against FLC-resistant Candida albicans ATCC 14053 infected in Balb/c mouse assessed as reduction in liver fungal load at 7.5 to 15 mg/kg, ig measured after 6 days in presence of fluconazole; type: functional, organism-based; settings: dose 7.5-15 mg/kg, time 6.0 day
Candida albicans [32] = test: Synergistic antifungal activity against clinical FLC-resistant Candida albicans 4508 measured after 24 hrs by microdilution method; type: functional
Candida albicans [33] = test: Antifungal activity against clinical FLC-resistant Candida albicans 799 measured after 24 hrs by microdilution method; type: functional
Candida albicans [34] = test: Synergistic antifungal activity against FLC-resistant Candida albicans ATCC 14053 cultured in spider medium assessed as inhibition of hyphal formation at 1 ug/ml measured after 4 to 8 hrs in presence of fluconazole and dibutyryl-cAMP by inverted microscopy; type: functional, organism-based; settings: dose 1.0 µg/ml, time 4-8 hrs
[35] = Toxicity in Balb/c mouse infected with FLC-resistant Candida albicans ATCC 14053 assessed as weight loss at 15 mg/kg, ig measured daily for 6 days; type: organism-based; settings: in vivo, po, 144 h, time 6 day
Candida albicans [36] = test: In vivo antifungal activity against FLC-resistant Candida albicans ATCC 14053 infected in Balb/c mouse assessed as reduction in kidney fungal load at 7.5 to 15 mg/kg, ig measured after 6 days in presence of fluconazole; type: functional, organism-based; settings: dose 7.5-15 mg/kg, time 6.0 day

## CN1CCN(c2nc3ccccc3cc2/C=C/C(=O)c2ccc(N3CCN(Cc4ccc(C(F)(F)F)cc4)CC3)cc2)CC1
Candida albicans [1]
  MIC80: > 40 µg/mL
Candida albicans [2]
  Activity: inactive
Candida albicans [3]
  inhibition: Active
Candida albicans [4]
  MIC80: > 40 µg/mL
Candida albicans [5]
  MIC80: 1.12 µg/mL
Candida albicans [6]
  MIC80: 0.87 µg/mL
Candida albicans [7]
  fractional inhibitory concentration index (FICI): 0.01
Candida albicans [8]
  MIC80: > 40 µg/mL
Candida albicans [9]
  Activity: inactive
Candida albicans [10]
  Survival: 90%
Candida albicans [11]
  fractional inhibitory concentration index (FICI): 0.01
Candida albicans [12]
  MIC80: > 40 µg/mL
Candida albicans [13]
  inhibition: Active
Candida albicans [14]
  Activity: Active
Candida albicans [15]
  MIC80: 0.54 µg/mL
Candida albicans [16]
  MIC80: 1.28 µg/mL
Candida albicans [17]
  MIC80: 5.67 µg/mL
Candida albicans [18]
  Activity: inactive
Candida albicans [19]
  Activity: inactive
Candida albicans [20]
  Activity: Active
Candida albicans [21]
  survival at 15 mg/kg: 30%
[22]
  Activity: Non-Toxic
Candida albicans [23]
  fractional inhibitory concentration index (FICI): 0.03
Candida albicans [24]
  Activity: inactive
Candida albicans [25]
  inhibition: inactive
Candida albicans [26]
  fractional inhibitory concentration index (FICI): 0.21
Candida albicans [27]
  inhibition: inactive
Candida albicans [28]
  MIC80: 0.91 µg/mL
Candida albicans [29]
  MIC80: > 40 µg/mL
Candida albicans [30]
  fractional inhibitory concentration index (FICI): 0.14
Candida albicans [31]
  Activity: inactive
Candida albicans [32]
  MIC80: 1.22 µg/mL
Candida albicans [33]
  MIC80: > 40 µg/mL
Candida albicans [34]
  inhibition: inactive
[35]
  Activity: Toxic
Candida albicans [36]
  Activity: Active
